Patent US20080009418A1, “Selective Inhibitors” (Alchemia LTD., priority 2004, published 2008)

Legend:
Conditions in all cases: compound at 10 μM
Human Melanocortin (MC4) = target: T1, Human Melanocortin (MC4) (Homo sapiens, UniProt P32245); assay: Radioligand binding, human melanocortin MC4 membranes, FlashPlate, [125I]-NDP-αMSH
T1 construct: purchased Perkin Elmer Biosignal
Method in brief: (§1)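 Cloned human receptor membranes were coated onto FlashPlate wells and incubated with radioligand and compound (added from a 0.5 mM DMSO daughter plate) for 1 hour at room temperature in the dark. Scintillation counting gave percent inhibition, with DMSO defining total and reference ligand defining non-specific binding.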

Human neurokinin (NK1) = target: T2, Human neurokinin (NK1) (Homo sapiens, UniProt P25103); assay: Radioligand binding, human neurokinin NK1 membranes, filtration, [125I]-Substance P
T2 construct: purchased Perkin Elmer Biosignal
T2 sequence (P25103 whole entry): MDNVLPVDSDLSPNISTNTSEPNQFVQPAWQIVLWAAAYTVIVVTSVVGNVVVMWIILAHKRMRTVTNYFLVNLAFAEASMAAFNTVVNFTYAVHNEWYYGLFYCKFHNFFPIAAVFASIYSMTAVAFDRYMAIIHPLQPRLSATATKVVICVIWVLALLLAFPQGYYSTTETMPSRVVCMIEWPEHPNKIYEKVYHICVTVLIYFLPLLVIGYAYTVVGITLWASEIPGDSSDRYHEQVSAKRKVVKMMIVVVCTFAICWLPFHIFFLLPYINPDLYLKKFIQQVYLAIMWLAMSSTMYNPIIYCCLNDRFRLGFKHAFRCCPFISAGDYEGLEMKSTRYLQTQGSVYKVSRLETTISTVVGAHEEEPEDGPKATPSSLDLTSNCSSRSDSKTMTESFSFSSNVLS
Method in brief: (§2)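 Filtration binding on cloned human receptor membranes (1 Unit/well), [125I]-Substance P for NK1 and [3H]-Diprenorphine for KOP, 1 h at room temperature. Filters PEI-presoaked, washed with cold 50 mM Tris-HCl pH 7.4, counted by scintillation; percent inhibition calculated, reference ligand defining non-specific binding.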

Human δ-opioid (DOP) = target: T3, Human δ-opioid (DOP) (Homo sapiens, UniProt P41143); assay: Radioligand binding, human δ-opioid (DOP) membranes, FlashPlate, [3H]-Bremazocine
T3 construct: purchased Perkin Elmer Biosignal
T3 sequence (P41143 whole entry): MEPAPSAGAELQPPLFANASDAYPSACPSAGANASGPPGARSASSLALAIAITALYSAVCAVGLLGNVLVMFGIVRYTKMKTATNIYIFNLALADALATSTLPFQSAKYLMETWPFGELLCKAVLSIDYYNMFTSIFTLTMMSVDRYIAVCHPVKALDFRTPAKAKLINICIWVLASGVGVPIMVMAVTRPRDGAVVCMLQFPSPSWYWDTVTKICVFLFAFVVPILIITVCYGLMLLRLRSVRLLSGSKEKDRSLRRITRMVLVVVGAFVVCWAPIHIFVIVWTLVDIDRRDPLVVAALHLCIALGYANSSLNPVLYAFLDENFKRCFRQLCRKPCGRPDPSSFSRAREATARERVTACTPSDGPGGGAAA
Method in brief: as §1

Human κ-Opioid (KOP) = target: T4, Human κ-Opioid (KOP) (Homo sapiens, UniProt P41145); assay: Radioligand binding, human κ-opioid (KOP) membranes, filtration, [3H]-Diprenorphine
T4 construct: purchased Perkin Elmer Biosignal
T4 sequence (P41145 whole entry): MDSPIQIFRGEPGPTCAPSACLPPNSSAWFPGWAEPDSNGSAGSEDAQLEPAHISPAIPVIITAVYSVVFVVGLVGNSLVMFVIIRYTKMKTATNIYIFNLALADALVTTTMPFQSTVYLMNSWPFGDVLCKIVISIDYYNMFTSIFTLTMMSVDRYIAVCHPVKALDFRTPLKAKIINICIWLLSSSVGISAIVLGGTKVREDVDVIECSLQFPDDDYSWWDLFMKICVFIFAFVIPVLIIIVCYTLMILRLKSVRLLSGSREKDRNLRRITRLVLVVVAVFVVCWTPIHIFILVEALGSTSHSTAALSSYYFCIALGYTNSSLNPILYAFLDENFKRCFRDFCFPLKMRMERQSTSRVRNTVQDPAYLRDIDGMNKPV
Method in brief: as §2

Human μ-opioid (MOP) = target: T5, Human μ-opioid (MOP) (Homo sapiens, UniProt P35372); assay: Radioligand binding, human μ-opioid (MOP) membranes, FlashPlate, [3H]-Naloxone
T5 construct: purchased Perkin Elmer Biosignal
T5 sequence (P35372 whole entry): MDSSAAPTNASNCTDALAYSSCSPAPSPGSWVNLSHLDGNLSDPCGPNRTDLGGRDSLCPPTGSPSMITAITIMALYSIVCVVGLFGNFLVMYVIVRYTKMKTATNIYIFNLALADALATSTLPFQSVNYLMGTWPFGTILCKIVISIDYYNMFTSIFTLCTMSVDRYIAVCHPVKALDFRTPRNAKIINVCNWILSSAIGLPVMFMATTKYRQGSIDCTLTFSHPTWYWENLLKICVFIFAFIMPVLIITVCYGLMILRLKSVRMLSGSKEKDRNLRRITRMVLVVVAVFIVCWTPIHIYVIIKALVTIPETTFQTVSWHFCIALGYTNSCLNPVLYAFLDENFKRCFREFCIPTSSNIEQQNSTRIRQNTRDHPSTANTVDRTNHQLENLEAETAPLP
Method in brief: as §1

Mouse urotensin (mUR2) = target: T6, Mouse urotensin (mUR2) (Mus musculus, UniProt Q8VIH9); assay: Radioligand binding, mouse urotensin mUR2 membranes, FlashPlate, [125I]-Urotensin II
T6 construct: purchased Perkin Elmer Biosignal
T6 sequence (Q8VIH9 1-385): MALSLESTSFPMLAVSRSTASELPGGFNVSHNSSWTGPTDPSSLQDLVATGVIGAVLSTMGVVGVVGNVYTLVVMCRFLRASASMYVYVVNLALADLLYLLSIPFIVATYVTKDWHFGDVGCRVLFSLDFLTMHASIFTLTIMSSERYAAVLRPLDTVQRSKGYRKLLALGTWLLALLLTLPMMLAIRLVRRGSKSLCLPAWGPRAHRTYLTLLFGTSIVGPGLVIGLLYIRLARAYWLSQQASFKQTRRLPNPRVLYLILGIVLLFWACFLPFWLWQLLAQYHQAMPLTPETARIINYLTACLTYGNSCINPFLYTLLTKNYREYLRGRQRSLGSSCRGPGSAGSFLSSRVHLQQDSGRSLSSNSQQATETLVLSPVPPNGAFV
Method in brief: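 Cloned mouse urotensin (mUR2) receptor membranes from Perkin Elmer Biosignal were immobilized in FlashPlate microplates using a proprietary coating. Each well got 19.5 μl buffer, then 0.5 μl of DMSO, reference ligand, or compound. Adding 5 μl of [125I]-Urotensin II, diluted to 5× final concentration in binding buffer, started binding. Plates were sealed with TopSeal-A and incubated 1 hour at room temperature in the dark. Wells were counted for 30 seconds each on a TopCount after a 60-second delay, and percentage inhibition was calculated.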

[1] = target: T7, Human neuropeptide Y (NPY-Y1) (Homo sapiens, UniProt P25929); assay: Radioligand binding, human neuropeptide Y NPY-Y1 membranes, FlashPlate, [125I]-PYY
T7 construct: purchased Perkin Elmer Biosignal
T7 sequence (P25929 1-384): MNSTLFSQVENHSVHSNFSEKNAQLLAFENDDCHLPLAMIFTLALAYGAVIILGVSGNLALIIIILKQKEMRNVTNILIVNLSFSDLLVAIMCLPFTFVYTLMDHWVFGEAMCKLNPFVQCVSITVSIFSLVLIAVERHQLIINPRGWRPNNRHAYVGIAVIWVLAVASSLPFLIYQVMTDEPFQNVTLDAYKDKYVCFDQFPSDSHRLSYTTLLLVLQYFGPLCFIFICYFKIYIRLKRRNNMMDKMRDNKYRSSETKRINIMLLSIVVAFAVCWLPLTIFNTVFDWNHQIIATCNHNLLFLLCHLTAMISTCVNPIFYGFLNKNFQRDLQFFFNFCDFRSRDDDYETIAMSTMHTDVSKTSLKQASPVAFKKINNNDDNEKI
Method in brief: as §1

Human opioid (ORL1) = target: T8, Human opioid (ORL1) (Homo sapiens, UniProt P41146); assay: Radioligand binding, human opioid ORL1 membranes, FlashPlate, [125I]-Nociceptin
T8 construct: purchased Perkin Elmer Biosignal
T8 sequence (P41146 whole entry): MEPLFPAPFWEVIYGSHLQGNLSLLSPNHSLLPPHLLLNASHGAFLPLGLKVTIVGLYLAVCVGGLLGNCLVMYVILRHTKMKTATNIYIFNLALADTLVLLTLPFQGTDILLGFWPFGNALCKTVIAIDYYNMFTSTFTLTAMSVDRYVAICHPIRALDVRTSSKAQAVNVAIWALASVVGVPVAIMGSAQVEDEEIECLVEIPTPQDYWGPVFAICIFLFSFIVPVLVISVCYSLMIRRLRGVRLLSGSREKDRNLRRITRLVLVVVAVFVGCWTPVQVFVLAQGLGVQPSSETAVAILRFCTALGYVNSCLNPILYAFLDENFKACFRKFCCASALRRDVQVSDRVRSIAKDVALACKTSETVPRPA
Method in brief: as §1

[2] = target: T9, Human melanin-concentrating hormone (MCH1) (Homo sapiens, UniProt Q99705); assay: Radioligand binding, human melanin-concentrating hormone MCH1 membranes, FlashPlate, [125I]-S36057
T9 construct: purchased Perkin Elmer Biosignal
T9 sequence (Q99705 whole entry): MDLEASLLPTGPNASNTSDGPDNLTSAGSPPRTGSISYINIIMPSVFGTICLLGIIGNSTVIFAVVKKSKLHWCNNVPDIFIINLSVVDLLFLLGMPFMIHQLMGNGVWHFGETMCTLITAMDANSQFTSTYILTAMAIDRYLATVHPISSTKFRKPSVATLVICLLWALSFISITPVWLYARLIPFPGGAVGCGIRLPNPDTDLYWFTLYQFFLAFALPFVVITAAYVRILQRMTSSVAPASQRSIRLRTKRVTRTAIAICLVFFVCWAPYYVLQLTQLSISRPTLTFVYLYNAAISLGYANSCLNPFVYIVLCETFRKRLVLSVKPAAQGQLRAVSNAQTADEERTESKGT
Method in brief: as §1

Human Melanocortin (MC3) = target: T10, Human Melanocortin (MC3) (Homo sapiens, UniProt P41968); assay: Radioligand binding, human melanocortin MC3 membranes, FlashPlate, [125I]-NDP-αMSH
T10 construct: purchased Perkin Elmer Biosignal
T10 sequence (P41968 whole entry): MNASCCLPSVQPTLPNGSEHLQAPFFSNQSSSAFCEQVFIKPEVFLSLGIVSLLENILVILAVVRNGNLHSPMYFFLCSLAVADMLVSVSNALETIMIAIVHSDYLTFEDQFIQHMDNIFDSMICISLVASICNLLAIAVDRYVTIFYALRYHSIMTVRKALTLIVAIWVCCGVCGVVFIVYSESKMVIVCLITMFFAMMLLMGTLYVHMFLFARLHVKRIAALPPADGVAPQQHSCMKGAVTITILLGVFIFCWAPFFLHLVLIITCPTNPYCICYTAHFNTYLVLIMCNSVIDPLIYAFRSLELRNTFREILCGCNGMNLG
Method in brief: as §1

Human melanocortin (MC5) = target: T11, Human melanocortin (MC5) (Homo sapiens, UniProt P33032); assay: Radioligand binding, human melanocortin MC5 membranes, FlashPlate, [125I]-NDP-αMSH
T11 construct: purchased Perkin Elmer Biosignal
T11 sequence (P33032 whole entry): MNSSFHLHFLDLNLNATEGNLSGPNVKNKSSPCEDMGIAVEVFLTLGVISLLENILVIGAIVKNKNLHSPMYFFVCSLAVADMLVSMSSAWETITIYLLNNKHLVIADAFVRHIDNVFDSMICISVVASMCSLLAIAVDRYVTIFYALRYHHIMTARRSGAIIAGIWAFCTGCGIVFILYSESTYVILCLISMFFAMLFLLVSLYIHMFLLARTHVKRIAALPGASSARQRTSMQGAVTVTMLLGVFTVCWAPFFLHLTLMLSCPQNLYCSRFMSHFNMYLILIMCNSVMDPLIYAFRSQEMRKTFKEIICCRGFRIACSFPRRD
Method in brief: as §1

T1 sequence (P32245 whole entry): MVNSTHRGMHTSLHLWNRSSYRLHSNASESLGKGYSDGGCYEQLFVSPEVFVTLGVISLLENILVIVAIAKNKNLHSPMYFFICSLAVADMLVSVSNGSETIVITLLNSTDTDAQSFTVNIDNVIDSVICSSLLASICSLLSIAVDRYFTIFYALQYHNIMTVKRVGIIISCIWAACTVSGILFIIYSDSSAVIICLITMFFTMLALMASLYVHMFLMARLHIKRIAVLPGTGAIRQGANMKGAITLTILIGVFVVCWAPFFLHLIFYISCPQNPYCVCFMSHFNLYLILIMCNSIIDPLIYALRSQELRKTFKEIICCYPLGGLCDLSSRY

CO[C@H]1[C@H](O)[C@@H](COCc2cccc(O)c2)OC(OCc2ccc(-c3ccccc3)cc2)[C@@H]1NC(=O)CCNC(=N)N (stereo partly shown) [compound 147]
A4 radioligand binding, percentage inhibition (Human Melanocortin (MC4); [125I]-NDP-αMSH): + (“+” indicates greater than 50% inhibition at 10 μM) | A8 radioligand binding, percentage inhibition (Human neurokinin (NK1); [125I]-Substance P): + (“+” indicates greater than 50% inhibition at 10 μM) | A1 radioligand binding, percentage inhibition (Human δ-opioid (DOP); [3H]-Bremazocine): − (“−” indicates less than 50% inhibition at 10 μM) | A2 radioligand binding, percentage inhibition (Human κ-Opioid (KOP); [3H]-Diprenorphine): + (“+” indicates greater than 50% inhibition at 10 μM) | A7 radioligand binding, percentage inhibition (Human μ-opioid (MOP); [3H]-Naloxone): + (“+” indicates greater than 50% inhibition at 10 μM) | A11 radioligand binding, percentage inhibition (Mouse urotensin (mUR2); [125I]-Urotensin II): − (“−” indicates less than 50% inhibition at 10 μM) | A9 radioligand binding, percentage inhibition ([1]; [125I]-PYY): − (“−” indicates less than 50% inhibition at 10 μM) | A10 radioligand binding, percentage inhibition (Human opioid (ORL1); [125I]-Nociceptin): − (“−” indicates less than 50% inhibition at 10 μM) | A6 radioligand binding, percentage inhibition ([2]; [125I]-S36057): + (“+” indicates greater than 50% inhibition at 10 μM) | A3 radioligand binding, percentage inhibition (Human Melanocortin (MC3); [125I]-NDP-αMSH): − (“−” indicates less than 50% inhibition at 10 μM) | A5 radioligand binding, percentage inhibition (Human melanocortin (MC5); [125I]-NDP-αMSH): + (“+” indicates greater than 50% inhibition at 10 μM)

N=C(N)NCC(=O)N[C@H]1C(OCc2ccc(Cl)cc2)O[C@H](COCc2ccc3ccccc3c2)[C@@H](O)[C@@H]1OCc1ccc(-c2ccccc2)cc1 (stereo partly shown) [compound 517]
A4: inhibition of radioligand binding, human melanocortin (MC4) (Human Melanocortin (MC4); [125I]-NDP-αMSH): + (“+” indicates greater than 50% inhibition at 10 μM) | A8: inhibition of radioligand binding, human neurokinin (NK1) (Human neurokinin (NK1); [125I]-Substance P): + (“+” indicates greater than 50% inhibition at 10 μM) | A1: inhibition of radioligand binding, human δ-opioid (DOP) (Human δ-opioid (DOP); [3H]-Bremazocine): − (“−” indicates less than 50% inhibition at 10 μM) | A2: inhibition of radioligand binding, human κ-opioid (KOP) (Human κ-Opioid (KOP); [3H]-Diprenorphine): + (“+” indicates greater than 50% inhibition at 10 μM) | A7: inhibition of radioligand binding, human μ-opioid (MOP) (Human μ-opioid (MOP); [3H]-Naloxone): − (“−” indicates less than 50% inhibition at 10 μM) | A11: inhibition of radioligand binding, mouse urotensin (mUR2) (Mouse urotensin (mUR2); [125I]-Urotensin II): − (“−” indicates less than 50% inhibition at 10 μM) | A9: inhibition of radioligand binding, human neuropeptide Y (NPY-Y1) ([1]; [125I]-PYY): − (“−” indicates less than 50% inhibition at 10 μM) | A10: inhibition of radioligand binding, human opioid (ORL1) (Human opioid (ORL1); [125I]-Nociceptin): − (“−” indicates less than 50% inhibition at 10 μM) | A6: inhibition of radioligand binding, human melanin-concentrating hormone (MCH1) ([2]; [125I]-S36057): + (“+” indicates greater than 50% inhibition at 10 μM) | A3: inhibition of radioligand binding, human melanocortin (MC3) (Human Melanocortin (MC3); [125I]-NDP-αMSH): + (“+” indicates greater than 50% inhibition at 10 μM) | A5: inhibition of radioligand binding, human melanocortin (MC5) (Human melanocortin (MC5); [125I]-NDP-αMSH): + (“+” indicates greater than 50% inhibition at 10 μM)

CO[C@H]1[C@H](O)[C@@H](COCc2ccc(Cl)cc2)OC(OCc2ccc(-c3ccccc3)cc2)[C@@H]1NC(=O)CCCNC(=N)N (stereo partly shown) [compound 65]
A4 radioligand binding inhibition (Human Melanocortin (MC4); human melanocortin MC4 membranes): + (“+” indicates greater than 50% inhibition at 10 μM) | A8 radioligand binding inhibition (Human neurokinin (NK1); human neurokinin NK1 membranes): + (“+” indicates greater than 50% inhibition at 10 μM) | A1 radioligand binding inhibition (Human δ-opioid (DOP); human δ-opioid (DOP) membranes): − (“−” indicates less than 50% inhibition at 10 μM) | A2 radioligand binding inhibition (Human κ-Opioid (KOP); human κ-opioid (KOP) membranes): − (“−” indicates less than 50% inhibition at 10 μM) | A7 radioligand binding inhibition (Human μ-opioid (MOP); human μ-opioid (MOP) membranes): + (“+” indicates greater than 50% inhibition at 10 μM) | A11 radioligand binding inhibition (Mouse urotensin (mUR2); mouse urotensin mUR2 membranes): − (“−” indicates less than 50% inhibition at 10 μM) | A9 radioligand binding inhibition ([1]; human NPY-Y1 membranes): − (“−” indicates less than 50% inhibition at 10 μM) | A10 radioligand binding inhibition (Human opioid (ORL1); human ORL1 membranes): − (“−” indicates less than 50% inhibition at 10 μM) | A6 radioligand binding inhibition ([2]; human MCH1 membranes): − (“−” indicates less than 50% inhibition at 10 μM) | A3 radioligand binding inhibition (Human Melanocortin (MC3); human melanocortin MC3 membranes): + (“+” indicates greater than 50% inhibition at 10 μM) | A5 radioligand binding inhibition (Human melanocortin (MC5); human melanocortin MC5 membranes): + (“+” indicates greater than 50% inhibition at 10 μM)

COCC1OC(OCc2ccccc2)C(NC(=O)CCNC(=N)N)C(OCc2ccc(-c3ccccc3)cc2)C1O (stereo not shown) [compound 185]
A4 radioligand binding, percentage inhibition (Human Melanocortin (MC4); [125I]-NDP-αMSH): + (“+” indicates greater than 50% inhibition at 10 μM) | A8 radioligand binding, percentage inhibition (Human neurokinin (NK1); [125I]-Substance P): + (“+” indicates greater than 50% inhibition at 10 μM) | A1 radioligand binding, percentage inhibition (Human δ-opioid (DOP); [3H]-Bremazocine): − (“−” indicates less than 50% inhibition at 10 μM) | A2 radioligand binding, percentage inhibition (Human κ-Opioid (KOP); [3H]-Diprenorphine): − (“−” indicates less than 50% inhibition at 10 μM) | A7 radioligand binding, percentage inhibition (Human μ-opioid (MOP); [3H]-Naloxone): − (“−” indicates less than 50% inhibition at 10 μM) | A11 radioligand binding, percentage inhibition (Mouse urotensin (mUR2); [125I]-Urotensin II): − (“−” indicates less than 50% inhibition at 10 μM) | A9 radioligand binding, percentage inhibition ([1]; [125I]-PYY): − (“−” indicates less than 50% inhibition at 10 μM) | A10 radioligand binding, percentage inhibition (Human opioid (ORL1); [125I]-Nociceptin): − (“−” indicates less than 50% inhibition at 10 μM) | A6 radioligand binding, percentage inhibition ([2]; [125I]-S36057): + (“+” indicates greater than 50% inhibition at 10 μM) | A3 radioligand binding, percentage inhibition (Human Melanocortin (MC3); [125I]-NDP-αMSH): − (“−” indicates less than 50% inhibition at 10 μM) | A5 radioligand binding, percentage inhibition (Human melanocortin (MC5); [125I]-NDP-αMSH): + (“+” indicates greater than 50% inhibition at 10 μM)

N=C(N)NCCC(=O)NC1C(OCc2ccc(Cl)cc2)OC(COCc2ccc(Cl)cc2)C(O)C1OCc1ccc(Cl)cc1 (stereo not shown) [compound 428]
A4: inhibition of radioligand binding (Human Melanocortin (MC4); [125I]-NDP-αMSH, human MC4 membranes): + (“+” indicates greater than 50% inhibition at 10 μM) | A8: inhibition of radioligand binding (Human neurokinin (NK1); [125I]-Substance P, human NK1 membranes): + (“+” indicates greater than 50% inhibition at 10 μM) | A1: inhibition of radioligand binding (Human δ-opioid (DOP); [3H]-Bremazocine, human DOP membranes): − (“−” indicates less than 50% inhibition at 10 μM) | A2: inhibition of radioligand binding (Human κ-Opioid (KOP); [3H]-Diprenorphine, human KOP membranes): − (“−” indicates less than 50% inhibition at 10 μM) | A7: inhibition of radioligand binding (Human μ-opioid (MOP); [3H]-Naloxone, human MOP membranes): − (“−” indicates less than 50% inhibition at 10 μM) | A11: inhibition of radioligand binding (Mouse urotensin (mUR2); [125I]-Urotensin II, mouse mUR2 membranes): − (“−” indicates less than 50% inhibition at 10 μM) | A9: inhibition of radioligand binding ([1]; [125I]-PYY, human NPY-Y1 membranes): − (“−” indicates less than 50% inhibition at 10 μM) | A10: inhibition of radioligand binding (Human opioid (ORL1); [125I]-Nociceptin, human ORL1 membranes): + (“+” indicates greater than 50% inhibition at 10 μM) | A6: inhibition of radioligand binding ([2]; [125I]-S36057, human MCH1 membranes): + (“+” indicates greater than 50% inhibition at 10 μM) | A3: inhibition of radioligand binding (Human Melanocortin (MC3); [125I]-NDP-αMSH, human MC3 membranes): + (“+” indicates greater than 50% inhibition at 10 μM) | A5: inhibition of radioligand binding (Human melanocortin (MC5); [125I]-NDP-αMSH, human MC5 membranes): + (“+” indicates greater than 50% inhibition at 10 μM)
